Experimental data from article PMC9112550, “Optimization of the antimicrobial peptide Bac7 by deep mutational scanning” (BMC Biology, 2022).
Where “and” joins values, the source holds several entries; their conditions need not be identical. Equal values may be shown once. Where no end group is shown, it is not given here.

Tests used:
[1] = tested on: bacterial membranes; settings: cited from earlier work
Description: We next investigated whether an increased propensity to damage membranes could be the reason for the improved antimicrobial activity of Bac7PS. Membrane damage is the most frequent way AMPs kill bacteria and is often considered the reason for high toxicity against eukaryotic cells. […] Consequently, we investigated if Bac7PS had acquired a tendency to damage membranes, which could imply a greater risk for systemic human applications. Cell damage was assessed by measuring leakage of green fluorescent protein (GFP), ex ...

[2] = tested on: bacteria; settings: cited from earlier work
Text: One of the most intensively researched proline-rich AMPs is bactenecin-7 (Bac7). It is a 60 amino acid long linear peptide that was first isolated from bovine neutrophils. […] Measuring the antimicrobial activity of heavily mutated variants was valuable to determine the sequence-activity relationship of Bac7_1-23 because (i) the activity of specific amino acid res ... || Bac7PS excelled over Bac7_1-23 in terms of antimicrobial activity against clinical isolates including MDR bacteria and a decreased dependency on the SbmA transporter (Fig. 4a; Table 2). […] We mainly attribute the activity gain to the increased ability to penetrate membranes, which was accompanied by a slight increase in membrane damage at higher concentrations compared to Bac7_1-23 (Fig. 4b; Additional file 1 ...

[3] = tested on: E. coli ATCC 25922; assay type: cell-based; settings: E. coli ATCC 25922 quality control strain; MHB II; 18 h, 37°C; averaged (n>3)
Description: (§1) Bacterial cells were grown in cation-adjusted Mueller Hinton Broth (MHB II) overnight to stationary phase. The cultures were then supplemented with 200 g l^−1 glycerol, aliquoted, and frozen at −80°C. […] The purified peptides were thawed and the concentration was determined by RP-HPLC as described before. The peptides were diluted with sterile water to 4-fold the desired assays starting concentration and to a final volume of 50 μl. […] The first well of each MIC dilution series was filled with 20 μl of 2-fold concentrated MHB II, wells 2–11 with 20 μl of MHB II, and well 12 with 40 μl MHB II (sterility control). Next, 20 μl of the peptide dilution was added to the first well, mixed, and a log2-serial dilution was performed from wells 1 to 10 (20 μl transfer volume). Well 11 served as growth control (i.e., no peptide added). In the last step, 20 μl of the bacterial cell suspension was added to wells 1–11 either using the pipetting robot (E. coli TOP10, BW25113, BW25113 ΔsbmA, and ATCC 25922) or by manual pipetting (E. coli clinical isolates). The plates were sealed airtight and incubated for 18 h without shaking at 37°C before reading the OD using an Infinite 200 PRO plate reader (Tecan, Männedorf, CH). The MIC value corresponded to the concentration at which no growth of the bacterial strain was observed (< 5% of the OD value of the growth control) and was evaluated using a custom-written script in the programming language R. MIC values of E. coli TOP10, BW25113, BW25113 ΔsbmA, and ATCC 25922 were determined at least in biological triplicates. All MIC experiments were determined in technical replicate.

[4] = tested on: E. coli clinical isolates; assay type: cell-based; settings: clinical isolates of E. coli (n=45) including MDR (ESBL, CRE); MHB II; 18 h, 37°C
Description: as §1

[5] = tested on: E. coli BW25113; assay type: cell-based; settings: E. coli BW25113 parental strain; MHB II; 18 h, 37°C; averaged (n>3)
Description: as §1

[6] = tested on: E. coli BW25113 ΔsbmA; assay type: cell-based
Description: as §1

[7] = tested on: E. coli TOP10; assay type: cell-based; settings: MHB II, 18 h, 37°C, averaged (n>3), <5% of OD of growth control
Description: as §1

[8] = tested on: mouse red blood cells; experiment: Hemolysis assay; assay type: cell-based; settings: 1 h, 37°C, DPBS, relative to Triton-X100 lysis control, triplicates
Description: Mouse blood was obtained from the ETH Phenomics Center. The erythrocytes were isolated by centrifugation at 500 × g for 10 min and removal of the blood plasma. The cells were washed three times by gently resuspending them in an equal volume of DPBS followed by centrifugation. After the last resuspension, the cells were diluted 1:50 in DPBS. For the hemolysis assay, a log2-serial dilution of each peptide was prepared as described for the MIC but using DPBS and 96-well plates (U-bottom, PP, 650201, Greiner) with a final volume of 100 μl. As lysis control, 2.5% Triton-X100 in DPBS was used in well 10, well 11 served as non-treated control (no peptide added), and well 12 as blank. To each well of the dilution plate, 100 μl of the red blood cells suspension was added. The plate was incubated for 1 h at 37°C. After incubation, the plate was centrifuged at 500 × g for 10 min and 100 μl of the supernatant was transferred to a clean 96-well plate (F-bottom, PS, 655101, Greiner). The absorbance was measured at 540 nm using an Infinite M1000 PRO plate reader (Tecan) and corrected by the measurements from the untreated wells. The lysis of each peptide concentration was expressed relative to the lysis control (set as 100% lysis). The hemolysis assay was performed in biological triplicates.

[9] = tested on: HeLa cells; experiment: In vitro toxicity assay (MTT), HeLa; assay type: cell-based, human
Description: (§2) HeLa epithelioid cervix carcinoma cells (originally purchased: 93021013, Sigma Aldrich) and HEK 293 human embryonic kidney (originally purchased: 85120602, Sigma Aldrich) were routinely cultivated in Dulbecco’s MEM high glucose (DMEM, with L-glutamine, without phenol red, 1-26P32, Bioconcept, Allschwil, CH), supplemented with 10% fetal bovine serum (heat inactivated, sterile filtered, F9665, Sigma Aldrich) and 100 IU ml^−1/100 μg ml^−1 Penicillin/streptomycin (4-01F00, Bioconcept) at 37°C with 5% CO2. Cells were split at a confluency of ≤ 90% (every 3 to 4 days) and maintained for max. 10 passages before a fresh aliquot of cells were seeded. […] The cell concentration was determined using a Countess 2 device (Thermo Fisher Scientific) and approx. 5000 (HeLa) or 25,000 (HEK 293) cells were seeded into wells of a 96-well plate (F-bottom, PS, 655180, Greiner) together with 100 μl DMEM. […] For each dilution series, the IC50 value was determined by computing a weighted n-parameters logistic regression using the “nplr” package in R (https://CRAN.R-project.org/package=nplr). […]

[10] = tested on: HEK 293 cells; assay type: cell-based, human; settings: MTT, 24 h, 37°C, triplicates, read-out: Toxicity IC50
Description: as §2

[11] = tested on: E. coli TOP10; experiment: Membrane damage assay in MHB II (GFP loss, PI uptake); assay type: cell-based; settings: at the MIC up to 8-fold higher concentrations, n = 3

For “Bac7: 60 amino acid long linear peptide first isolated from bovine neutrophils”, the “damage of bacterial membranes at its MIC” value [1] is given as “not damage bacterial membranes” and the “activity against species of Gram-negative Enterobacteriaceae” value [2] is given as “high activity”.
For RRIRPRPPRLPRPRPRPLPFPRP [Bac7_1-23], the MIC [3] was 2.8 µM, the MIC50 [4] was 7.5 µM and the MIC [5] was 7.4 µM. The “antimicrobial activity against the SbmA transporter knockout strain” value [6] was “largely inactive”, the MIC ([6]; MHB II, 18 h, 37°C, averaged (n>3)) was 52.1 µM and the MIC [7] was 4.6 µM. For the same substance, the “Hemolysis of mouse red blood cells” value ([8]; 1xMIC (MIC measured for E. coli ATCC 25922)) was < 4% and 2.1%, the “Hemolysis of mouse red blood cells” value ([8]; 4xMIC (MIC measured for E. coli ATCC 25922)) was < 7% and 6.4% and the IC50 ([9]; HeLa, MTT, 24 h, 37°C, triplicates) was 1.46 mM. The “therapeutic index (TI), Toxicity/MIC” value ([9]; IC50 HeLa divided by MIC50 from clinical isolates) was 195, the IC50 [10] was 1.97 mM and the PI-positive cells [11] was ~ 1%. The “cells that retained GFP levels” value [11] was ~ 99%.
